Test results reported in patent US9951028B2, “Agricultural chemicals” (REDAG CROP PROTECTION LTD, priority 2013, dated 2018).

Key:
Test in all cases: Herbicidal efficacy screen, corrected necrosis
Format in all cases: in vivo
[1] = test system: Abutilon theophrasti (China Jute)
Experimental: (§1) Plants were obtained as seeds and were grown to the 2-4 true leaf stage. Plants were grown under laboratory conditions, individually in seed trays. Each plant (in an approximately 3 cm diameter plug) was then detached from the tray for spraying. The compounds were screened at a range of five concentrations, diluted in acetone and Tween™. A carrier only control was also conducted. Treatments were applied directly onto the plants, using a potter tower, at a specified application rate. One plant of each species was sprayed using a potter tower. The 3 different types of plants were placed on a 10 cm diameter platform directly beneath the potter sprayer and sprayed simultaneously. The growth of the plants and any Phytotoxicity effects were then assessed at intervals over 21 days, according to EPPO guideline PP1/135. In the tables below C represents a percentage increase in necrosis relative to the control of 0.1-50; B represents a percentage inhibition of 50-80; and A represents a percentage inhibition of 80-100. Certain compounds of the invention were screened for herbicidal efficacy against target plants: Amaranthus retroflexus (redroot pigweed), Abutilon theophrasti (China Jute): Capsella bursa-pastoris, (shepherd's-purse) Echinochloa crus-galli, Hordeum vulgare (Barley),

[2] = test system: Amaranthus retroflexus (redroot pigweed)
Experimental: as §1

[3] = test system: Capsella bursa-pastoris, (shepherd's-purse)
Experimental: as §1

[4] = 6.25 g/ha, day 1 post application
[5] = 6.25 g/ha, day 7 post application
[6] = 12.5 g/ha, day 1 post application
[7] = 12.5 g/ha, day 7 post application
[8] = 25 g/ha, day 1 post application
[9] = 25 g/ha, day 7 post application
[10] = 50 g/ha, day 1 post application
[11] = 50 g/ha, day 7 post application
[12] = 100 g/ha, day 1 post application
[13] = 100 g/ha, day 7 post application

## CC(C)N(C)S(=O)(=O)NC(=O)c1cc(-n2c(=O)cc(C(F)(F)F)n(C)c2=O)c(F)cc1Cl [Compound 25, 2-Chloro-4-fluoro-N-(isopropyl(methyl)sulfamoyl)-5-[3-methyl-2,6-dioxo-4-(trifluoromethyl)pyrimidin-1-yl]benzamide, reference compound]
[1]; [4]
  Average of corrected necrosis: C (C represents a percentage increase in necrosis relative to the control of 0.1-50)
[1]; [5]
  Average of corrected necrosis: A (A represents a percentage inhibition of 80-100)
[1]; [6]
  Average of corrected necrosis: C (C represents a percentage increase in necrosis relative to the control of 0.1-50)
[1]; [7]
  Average of corrected necrosis: A (A represents a percentage inhibition of 80-100)
[1]; [8]
  Average of corrected necrosis: C (C represents a percentage increase in necrosis relative to the control of 0.1-50)
[1]; [9]
  Average of corrected necrosis: A (A represents a percentage inhibition of 80-100)
[1]; [10]
  Average of corrected necrosis: C (C represents a percentage increase in necrosis relative to the control of 0.1-50)
[1]; [11]
  Average of corrected necrosis: A (A represents a percentage inhibition of 80-100)
[1]; [12]
  Average of corrected necrosis: C (C represents a percentage increase in necrosis relative to the control of 0.1-50)
[1]; [13]
  Average of corrected necrosis: A (A represents a percentage inhibition of 80-100)
[2]; [4]
  Average of corrected necrosis: C (C represents a percentage increase in necrosis relative to the control of 0.1-50)
[2]; [5]
  Average of corrected necrosis: A (A represents a percentage inhibition of 80-100)
[2]; [6]
  Average of corrected necrosis: C (C represents a percentage increase in necrosis relative to the control of 0.1-50)
[2]; [7]
  Average of corrected necrosis: A (A represents a percentage inhibition of 80-100)
[2]; [8]
  Average of corrected necrosis: C (C represents a percentage increase in necrosis relative to the control of 0.1-50)
[2]; [9]
  Average of corrected necrosis: A (A represents a percentage inhibition of 80-100)
[2]; [10]
  Average of corrected necrosis: C (C represents a percentage increase in necrosis relative to the control of 0.1-50)
[2]; [11]
  Average of corrected necrosis: A (A represents a percentage inhibition of 80-100)
[2]; [12]
  Average of corrected necrosis: C (C represents a percentage increase in necrosis relative to the control of 0.1-50)
[2]; [13]
  Average of corrected necrosis: A (A represents a percentage inhibition of 80-100)
[3]; [4]
  Average of corrected necrosis: 0%
[3]; [5]
  Average of corrected necrosis: A (A represents a percentage inhibition of 80-100)
[3]; [6]
  Average of corrected necrosis: 0%
[3]; [7]
  Average of corrected necrosis: A (A represents a percentage inhibition of 80-100)
[3]; [8]
  Average of corrected necrosis: 0%
[3]; [9]
  Average of corrected necrosis: A (A represents a percentage inhibition of 80-100)
[3]; [10]
  Average of corrected necrosis: C (C represents a percentage increase in necrosis relative to the control of 0.1-50)
[3]; [11]
  Average of corrected necrosis: A (A represents a percentage inhibition of 80-100)
[3]; [12]
  Average of corrected necrosis: C (C represents a percentage increase in necrosis relative to the control of 0.1-50)
[3]; [13]
  Average of corrected necrosis: A (A represents a percentage inhibition of 80-100)
